In patent publication US5807700A, “Method of screening anti-amebic agents with an E. coli mutant having a deleted adhE gene complemented by the E. histolytica EhADH2 gene” (Washington University, priority 1995, dated 1998):

What was measured:
[1] = molecular target: T1, purified recombinant EhADH2 (Entamoeba histolytica, UniProt Q24803); assay: Substrate specificity and kinetics, ADH activity of purified recombinant EhADH2; assay type: biochemical; conditions: for substrate for the enzyme (ADH reactivity): purified recombinant EhADH2, 1 mM NAD+, pH 9.5
T1 construct: a NcoI site at the initiating ATG codon using PCR with the EhADH2 cDNA as the template; made in house; host or cells: E. coli SHH31(DE3) carrying pET/EhADH2
T1 sequence (Q24803 1-870): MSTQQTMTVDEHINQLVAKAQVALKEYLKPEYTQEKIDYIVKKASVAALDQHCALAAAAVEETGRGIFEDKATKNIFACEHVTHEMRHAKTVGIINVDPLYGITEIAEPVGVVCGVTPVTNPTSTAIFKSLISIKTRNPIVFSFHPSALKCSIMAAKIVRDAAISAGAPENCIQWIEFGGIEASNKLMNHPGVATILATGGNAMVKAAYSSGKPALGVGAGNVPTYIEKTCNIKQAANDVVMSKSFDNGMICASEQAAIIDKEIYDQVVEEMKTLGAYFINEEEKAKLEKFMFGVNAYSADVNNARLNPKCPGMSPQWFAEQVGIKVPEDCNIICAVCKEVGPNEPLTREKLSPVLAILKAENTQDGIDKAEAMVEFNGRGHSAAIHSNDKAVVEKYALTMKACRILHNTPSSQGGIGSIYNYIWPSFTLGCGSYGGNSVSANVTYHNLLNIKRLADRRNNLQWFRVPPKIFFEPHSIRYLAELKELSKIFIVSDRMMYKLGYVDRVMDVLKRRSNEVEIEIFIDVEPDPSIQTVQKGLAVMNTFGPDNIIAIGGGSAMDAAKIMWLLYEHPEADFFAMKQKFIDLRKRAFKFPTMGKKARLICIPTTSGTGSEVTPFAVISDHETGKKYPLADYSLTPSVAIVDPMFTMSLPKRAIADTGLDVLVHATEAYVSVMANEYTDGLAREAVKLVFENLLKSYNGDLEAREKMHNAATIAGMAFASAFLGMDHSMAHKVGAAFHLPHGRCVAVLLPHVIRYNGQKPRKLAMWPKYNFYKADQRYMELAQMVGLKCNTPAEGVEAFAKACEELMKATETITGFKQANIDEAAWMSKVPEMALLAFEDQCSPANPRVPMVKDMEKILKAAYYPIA
Experimental: (§1) ADH activity of the supernatant fraction from bacterial lysates, or of the purified recombinant enzyme was assayed spectrophotometrically by measuring the decrease in absorbance at 340 nm following the oxidation of NADH to […] (21). The cuvette contained 6 mM DTT, 5 mM MgSO4, 0.1 mM Fe(NH4)2 (SO4)2, 0.4 mM NADH, 10 mM acetaldehyde, and 0.1 M MOPS-KOH buffer (pH 7.5) to give a final volume of 1.0 ml. MOPS=3-[N-Morpholino]propanesulfonic acid; DTT=dithiothreitol.
(§2) To study the substrate specificity and kinetics of the purified recombinant EhADH2 molecule, the spectrophotometric assay of ADH activity was again utilized, with 5 μg of the purified enzyme in the presence of 50 mM glycine/NaOH buffer (pH 9.5) containing 6 mM DTT, 5 mM MgSO4, 0.1 mM Fe(NH4)2 (SO4)2, 1 mM […], and varying concentrations of the substrate alcohol to be tested (11). The Km and Kcat values expressed were determined using non-linear regression to fit the values for initial velocity and substrate concentration to the Michaelis-Menten equation.

[2] = molecular target: T2, native EhADH2 enzyme (Entamoeba histolytica, UniProt Q24803); conditions: read-out: Km reported for native EhADH2 enzyme; cited from earlier work
T2 construct: essentially identical to that reported for the native EhADH2 enzyme (80 mM) (11)

[3] = molecular target: E. coli AdhE enzyme (Escherichia coli, UniProt P0A9Q7); conditions: read-out: Km for the E. coli AdhE enzyme; cited from earlier work
[4] = system: E. histolytica HM1:IMSS trophozoites; assay: Inhibition of E. histolytica growth (viable trophozoite count); assay type: cell-based, Entamoeba histolytica; design: effect on E. histolytica growth: dose or concentration left out as unconfirmed
Experimental: Anaerobic liquid cultures were grown without agitation in tubes inside the anaerobic jars at 37° C. Solid media contained 1.5% Bacto Agar (Difco, Detroit, Mich.). Trophozoites of E. histolytica HM1:IMSS were cultured axenically in BYI-S-33 medium by conventional procedure as previously described (17).
(§3) E. coli SHH31 transformed with pMON/EhADH2 were inoculated into M9 minimal liquid medium and grown under anaerobic or aerobic conditions in the presence or absence of pyrazole (Sigma Chemical Co., St. Louis, Mo.) at concentrations of 5 to 20 mM. Growth was monitored by determining the optical density (O.D.) at 600 nm at 24 and 48 hrs post-inoculation. […] Viable trophozoites were counted using a hemacytometer at days 2 and 4, and the number of trophozoites/ml recorded.

[5] = molecular target: T3, EhADH1 (Entamoeba histolytica, UniProt P35630); conditions: NADP+-dependent EhADH1; cited from earlier work
T3 sequence (P35630 1-366): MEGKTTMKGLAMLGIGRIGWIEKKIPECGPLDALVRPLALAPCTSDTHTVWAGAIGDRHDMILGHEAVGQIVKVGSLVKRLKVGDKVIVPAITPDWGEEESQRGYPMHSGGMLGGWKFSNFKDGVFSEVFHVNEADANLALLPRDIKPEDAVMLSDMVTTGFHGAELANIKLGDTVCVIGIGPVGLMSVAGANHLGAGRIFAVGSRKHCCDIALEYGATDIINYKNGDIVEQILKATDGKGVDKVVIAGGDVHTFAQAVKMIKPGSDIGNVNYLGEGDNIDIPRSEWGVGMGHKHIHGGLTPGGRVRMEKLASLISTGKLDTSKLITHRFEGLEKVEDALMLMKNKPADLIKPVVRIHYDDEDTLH

[6] = molecular target: T4, recombinant EhADH2 (Entamoeba histolytica, UniProt Q24803); assay: Inhibition of purified recombinant EhADH2 enzyme (Ki); assay type: biochemical; conditions: read-out: Ki for the recombinant EhADH2 molecule
T4 construct: a NcoI site at the initiating ATG codon using PCR with the EhADH2 cDNA as the template; made in house; host or cells: E. coli SHH31(DE3) carrying pET/EhADH2
T4 sequence (Q24803 1-870): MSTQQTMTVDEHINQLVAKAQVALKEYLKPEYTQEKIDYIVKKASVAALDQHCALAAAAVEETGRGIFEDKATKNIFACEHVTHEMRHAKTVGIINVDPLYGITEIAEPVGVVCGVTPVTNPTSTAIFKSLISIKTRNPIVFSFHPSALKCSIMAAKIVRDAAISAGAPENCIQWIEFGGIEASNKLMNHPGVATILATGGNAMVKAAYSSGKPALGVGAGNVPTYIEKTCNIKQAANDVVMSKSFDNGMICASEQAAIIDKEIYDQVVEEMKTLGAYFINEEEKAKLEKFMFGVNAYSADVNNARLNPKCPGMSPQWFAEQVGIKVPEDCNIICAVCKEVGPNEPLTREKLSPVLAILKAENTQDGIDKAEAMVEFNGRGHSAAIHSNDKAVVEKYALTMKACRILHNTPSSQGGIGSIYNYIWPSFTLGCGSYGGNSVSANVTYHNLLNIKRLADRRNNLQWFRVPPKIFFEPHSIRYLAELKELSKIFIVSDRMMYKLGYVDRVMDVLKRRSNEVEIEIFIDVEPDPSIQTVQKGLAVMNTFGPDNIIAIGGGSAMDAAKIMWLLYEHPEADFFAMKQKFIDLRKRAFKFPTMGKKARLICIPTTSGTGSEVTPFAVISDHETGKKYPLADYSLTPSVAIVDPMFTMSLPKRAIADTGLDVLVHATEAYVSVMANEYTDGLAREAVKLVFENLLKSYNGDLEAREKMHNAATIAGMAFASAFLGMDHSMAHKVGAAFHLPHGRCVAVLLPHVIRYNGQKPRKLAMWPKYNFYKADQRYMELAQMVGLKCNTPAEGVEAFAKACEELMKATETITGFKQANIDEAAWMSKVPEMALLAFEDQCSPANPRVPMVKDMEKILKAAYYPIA
Experimental: as §1, §2

[7] = system: E. coli SHH31/pMON/EhADH2; assay: EhADH2 inhibition assay: growth of E. coli SHH31 transformed with pMON/EhADH2 (O.D. at 600 nm); assay type: cell-based; conditions: M9 minimal liquid medium, pyrazole 5 to 20 mM, O.D. 600 nm at 24 and 48 hrs
Experimental: E. coli and E. histolytica strains and culture conditions. Conventional E. coli strains, DH5α, BL21(DE3), and SHH31 (Δadh zch::Tn10 fadR met tyrT) (15) were used for transformation and the expression of recombinant EhADH2. Aerobic cultures were grown in LB medium with agitation at 37° C. For anaerobic growth, bacteria were incubated in anaerobic jars, BBL®GasPak® System under an H2 -CO2 atmosphere generated by BBL GAS PAK Anaerobic System Envelopes (Becton Dickinson, Cockeysville, Md.).
Anaerobic indicator strips were used to ensure anaerobic conditions. M9 minimal medium used for anaerobic growth was supplemented with glucose at 0.25%, thiamine (1 mM), CaCl2 (0.1 mM), MgSO4 (1.2 mM), and the following trace minerals: Fe(50 μM), Se(5 μM), Mo(5 μM), Mn(5 μM) (16).
Anaerobic liquid cultures were grown without agitation in tubes inside the anaerobic jars at 37° C. Solid media contained 1.5% Bacto Agar (Difco, Detroit, Mich.). […]
as §3

[8] = substrate: CC=O; assay: Substrate specificity and kinetics, ADH activity of purified recombinant EhADH2; assay type: biochemical, Entamoeba histolytica; conditions: other: reaction acetaldehyde + NADH
Experimental: (§5) To study the substrate specificity and kinetics of the purified recombinant EhADH2 molecule, the spectrophotometric assay of ADH activity was again utilized, with 5 μg of the purified enzyme in the presence of 50 mM glycine/NaOH buffer (pH 9.5) containing 6 mM DTT, 5 mM MgSO4, 0.1 mM Fe(NH4)2 (SO4)2, 1 mM AND^+, and varying concentrations of the substrate alcohol to be tested (11). The Km and Kcat values expressed were determined using non-linear regression to fit the values for initial velocity and substrate concentration to the Michaelis-Menten equation.

[9] = substrate: CCO; assay: as above; assay type: biochemical, Entamoeba histolytica; conditions: other: reaction ethanol + NAD+
Experimental: as §5

[10] = substrate: NC(=O)C1=CN([C@@H]2O[C@H](COP(=O)(O)OP(=O)(O)OC[C@H]3O[C@@H](n4cnc5c(N)ncnc54)[C@H](O)[C@@H]3O)[C@@H](O)[C@H]2O)C=CC1; assay: as above; assay type: biochemical, Entamoeba histolytica; conditions: other: reaction acetaldehyde + NADH
Experimental: as §5

[11] = substrate: CCCO; assay: as above; assay type: biochemical, Entamoeba histolytica; conditions: other: reaction 1-propanol + NAD+
Experimental: as §5

[12] = substrate: CC(=O)SCCNC(=O)CCNC(=O)[C@H](O)C(C)(C)COP(=O)(O)OP(=O)(O)OC[C@H]1O[C@@H](n2cnc3c(N)ncnc32)[C@H](O)[C@@H]1OP(=O)(O)O; assay: ALDH activity kinetics of purified recombinant EhADH2; assay type: biochemical, Entamoeba histolytica; conditions: other: reaction acetyl-CoA + NADH; pH 9.5
Experimental: (§4) ALDH activity was assayed using the same method, with the substitution of 0.1 mM acetyl-CoA for acetaldehyde in the reaction buffer. A unit of enzyme activity is defined as the micromoles of product formed per min of incubation at room temperature.
as §2

[13] = substrate: NC(=O)C1=CN([C@@H]2O[C@H](COP(=O)(O)OP(=O)(O)OC[C@H]3O[C@@H](n4cnc5c(N)ncnc54)[C@H](O)[C@@H]3O)[C@@H](O)[C@H]2O)C=CC1; assay: as above; assay type: biochemical, Entamoeba histolytica; conditions: other: reaction acetyl-CoA + NADH; pH 9.5
Experimental: as §4, §2

Chain of E. coli AdhE enzyme (P0A9Q7 whole entry): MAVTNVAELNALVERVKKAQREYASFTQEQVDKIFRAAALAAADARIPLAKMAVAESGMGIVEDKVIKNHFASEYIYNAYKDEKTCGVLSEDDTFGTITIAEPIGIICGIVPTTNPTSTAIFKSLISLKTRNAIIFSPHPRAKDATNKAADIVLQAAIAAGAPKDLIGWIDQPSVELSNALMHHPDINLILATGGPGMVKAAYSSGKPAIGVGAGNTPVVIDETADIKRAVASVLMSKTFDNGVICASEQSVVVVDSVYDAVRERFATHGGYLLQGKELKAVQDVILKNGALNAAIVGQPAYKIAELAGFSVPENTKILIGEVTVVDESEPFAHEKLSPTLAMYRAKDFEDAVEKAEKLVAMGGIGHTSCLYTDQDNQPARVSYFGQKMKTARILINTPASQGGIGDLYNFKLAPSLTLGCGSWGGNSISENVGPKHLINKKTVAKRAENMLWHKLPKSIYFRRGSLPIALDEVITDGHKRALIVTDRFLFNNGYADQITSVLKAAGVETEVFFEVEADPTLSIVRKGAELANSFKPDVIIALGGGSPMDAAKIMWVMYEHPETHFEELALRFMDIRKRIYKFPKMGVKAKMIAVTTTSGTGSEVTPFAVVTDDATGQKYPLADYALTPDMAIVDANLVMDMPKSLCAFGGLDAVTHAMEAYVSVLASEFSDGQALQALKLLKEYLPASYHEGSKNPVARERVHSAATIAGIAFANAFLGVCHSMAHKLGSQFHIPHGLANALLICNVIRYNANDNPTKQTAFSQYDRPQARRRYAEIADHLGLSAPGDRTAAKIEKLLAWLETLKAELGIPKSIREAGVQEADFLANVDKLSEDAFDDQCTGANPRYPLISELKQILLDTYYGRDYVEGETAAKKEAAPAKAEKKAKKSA

Molecule: CCC(C)O (stereo not drawn) [sec-butanol]
- substrate for the enzyme (ADH reactivity) [1]: No reactivity

Molecule: CC(C)O [isopropanol]
- substrate for the enzyme (ADH reactivity) [1]: No reactivity

Molecule: CO [methanol]
- substrate for the enzyme (ADH reactivity) [1]: neither retinol nor methanol were substrates

Molecule: CCO [ethanol]
- Km [2]: 80 mM
- Km [3]: 30 mM

Molecule: NC(=O)c1ccc[n+]([C@@H]2O[C@H](COP(=O)(O)OP(=O)(O)OC[C@H]3O[C@@H](n4cnc5c(N)ncnc54)[C@H](O)[C@@H]3O)[C@@H](O)[C@H]2O)c1 [NAD^+]
- Km ([1]; reaction 1-propanol + NAD+): 250 µM
- Km ([1]; reaction ethanol + NAD+): 550 µM

Molecule: CC1=C(/C=C/C(C)=C/C=C/C(C)=C/CO)C(C)(C)CCC1 [retinol]
- substrate for the enzyme (ADH reactivity) [1]: neither retinol nor methanol were substrates

Molecule: CC=O [acetaldehyde]
- Km [2]: 0.15 mM

Molecule: c1cn[nH]c1 [pyrazole]
- effect on E. histolytica growth [4]: no effect
- inhibition of growth of E. histolytica trophozoites ([4]; concentration of 20 to 40 mM, viable trophozoites at days 2 and 4): significantly inhibited amebic growth
- Ki [5]: 1400 nM
- Ki [6]: 7.24 mM
- effect on growth under aerobic conditions ([7]; aerobic): much reduced effect
- inhibition of anaerobic growth of SHH31/pMON/EhADH2 ([7]; anaerobic): in a dose-dependent manner significantly inhibited

B1: purified recombinant EhADH2 (Entamoeba histolytica HM-1:IMSS) (protein)
chain: MSTQQTMTVDEHINQLVAKAQVALKEYLKPEYTQEKIDYIVKKASVAALDQHCALAAAAVEETGRGIFEDKATKNIFACEHVTHEMRHAKTVGIINVDPLYGITEIAEPVGVVCGVTPVTNPTSTAIFKSLISIKTRNPIVFSFHPSALKCSIMAAKIVRDAAISAGAPENCIQWIEFGGIEASNKLMNHPGVATILATGGNAMVKAAYSSGKPALGVGAGNVPTYIEKTCNIKQAANDVVMSKSFDNGMICASEQAAIIDKEIYDQVVEEMKTLGAYFINEEEKAKLEKFMFGVNAYSADVNNARLNPKCPGMSPQWFAEQVGIKVPEDCNIICAVCKEVGPNEPLTREKLSPVLAILKAENTQDGIDKAEAMVEFNGRGHSAAIHSNDKAVVEKYALTMKACRILHNTPSSQGGIGSIYNYIWPSFTLGCGSYGGNSVSANVTYHNLLNIKRLADRRNNLQWFRVPPKIFFEPHSIRYLAELKELSKIFIVSDRMMYKLGYVDRVMDVLKRRSNEVEIEIFIDVEPDPSIQTVQKGLAVMNTFGPDNIIAIGGGSAMDAAKIMWLLYEHPEADFFAMKQKFIDLRKRAFKFPTMGKKARLICIPTTSGTGSEVTPFAVISDHETGKKYPLADYSLTPSVAIVDPMFTMSLPKRAIADTGLDVLVHATEAYVSVMANEYTDGLAREAVKLVFENLLKSYNGDLEAREKMHNAATIAGMAFASAFLGMDHSMAHKVGAAFHLPHGRCVAVLLPHVIRYNGQKPRKLAMWPKYNFYKADQRYMELAQMVGLKCNTPAEGVEAFAKACEELMKATETITGFKQANIDEAAWMSKVPEMALLAFEDQCSPANPRVPMVKDMEKILKAAYYPIA
notes: a NcoI site at the initiating ATG codon using PCR with the EhADH2 cDNA as the template; made in house; host or cells: E. coli SHH31(DE3) carrying pET/EhADH2
- Km [8]: 2900 µM
- Km [9]: 85 mM
- Km [10]: 280 µM
- Km [11]: 40 mM
- Km [12]: 40 µM
- Km [13]: 170 µM
